Laboratory results taken from patent US9605003B2, “Heterocyclic compounds and uses thereof” (Infinity Pharmaceuticals, Inc., priority 2011, dated 2017).

Columns and labels:
Balb/c splenic B cells = test: B cell activation and proliferation assay (Alamar Blue); assay type: cell-based; settings: Mus musculus
Method: The ability of one or more subject compounds to inhibit B cell activitation and proliferation is determined according to standard procedures known in the art. For example, an in vitro cellular proliferation assay is established that measures the metabolic activity of live cells. The assay is performed in a 96 well microtiter plate using Alamar Blue reduction. Balb/c splenic B cells are purified over a Ficoll-Paque™ PLUS gradient followed by magnetic cell separation using a MACS B cell Isolation Kit (Miletenyi). Cells are plated in 90 μl at 50,000 cells/well in B Cell Media (RPMI+10% FBS+Penn/Strep+50 μM bME+5 mM HEPES). A compound provided herein is diluted in B Cell Media and added in a 10 μl volume. Plates are incubated for 30 min at 37° C. and 5% CO2 (0.2% DMSO final concentration). A 50 μl B cell stimulation cocktail is then added containing either 10 μg/ml LPS or 5 μg/ml F(ab′)2 Donkey anti-mouse IgM plus 2 ng/ml recombinant mouse IL4 in B Cell Media. Plates are incubated for 72 hours at 37° C. and 5% CO2. A volume of 15 μL of Alamar Blue reagent is added to each well and plates are incubated for 5 hours at 37° C. and 5% CO2. Alamar Blue fluoresce is read at 560Ex/590Em, and IC50 or EC50 values are calculated using GraphPad Prism 5.

PI3Kα = molecular target: T1, PI3Kα (Homo sapiens, UniProt P42336); test: PI3 Kinase HTRF assay, PI3Kα; assay type: biochemical; settings: Between 1 μM and 10 μM; read-out: PI3K α IC50
T1 construct: purchased Millipore Corporation 14-602-K
T1 sequence (P42336 whole entry): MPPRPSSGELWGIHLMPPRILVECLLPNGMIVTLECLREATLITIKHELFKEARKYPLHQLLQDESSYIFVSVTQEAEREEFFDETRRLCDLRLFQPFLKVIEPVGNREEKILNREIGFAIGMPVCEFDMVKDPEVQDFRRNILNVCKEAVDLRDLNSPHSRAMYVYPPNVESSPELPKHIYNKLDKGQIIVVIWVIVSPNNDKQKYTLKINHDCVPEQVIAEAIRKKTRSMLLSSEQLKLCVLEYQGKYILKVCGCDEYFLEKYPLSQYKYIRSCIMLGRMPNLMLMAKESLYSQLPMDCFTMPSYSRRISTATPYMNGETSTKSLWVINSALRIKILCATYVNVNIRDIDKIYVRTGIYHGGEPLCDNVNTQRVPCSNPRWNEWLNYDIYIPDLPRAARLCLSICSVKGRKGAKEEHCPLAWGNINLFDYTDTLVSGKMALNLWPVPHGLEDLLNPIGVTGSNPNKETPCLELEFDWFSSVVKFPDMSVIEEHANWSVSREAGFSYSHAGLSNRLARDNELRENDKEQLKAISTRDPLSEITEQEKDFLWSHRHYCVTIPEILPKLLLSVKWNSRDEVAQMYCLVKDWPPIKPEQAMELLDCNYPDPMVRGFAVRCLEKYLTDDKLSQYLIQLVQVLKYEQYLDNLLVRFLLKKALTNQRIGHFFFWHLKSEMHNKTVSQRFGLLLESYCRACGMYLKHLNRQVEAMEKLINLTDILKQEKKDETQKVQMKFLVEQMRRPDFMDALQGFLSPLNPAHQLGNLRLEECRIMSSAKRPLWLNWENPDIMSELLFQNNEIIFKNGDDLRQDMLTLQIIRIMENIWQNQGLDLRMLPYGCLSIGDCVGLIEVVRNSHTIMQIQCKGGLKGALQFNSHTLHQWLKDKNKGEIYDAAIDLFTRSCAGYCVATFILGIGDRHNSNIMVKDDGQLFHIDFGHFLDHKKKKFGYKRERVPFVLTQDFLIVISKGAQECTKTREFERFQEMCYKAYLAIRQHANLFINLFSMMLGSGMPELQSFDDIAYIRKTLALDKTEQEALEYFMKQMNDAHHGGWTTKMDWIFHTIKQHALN
T1 sequence (P27986 whole entry partner): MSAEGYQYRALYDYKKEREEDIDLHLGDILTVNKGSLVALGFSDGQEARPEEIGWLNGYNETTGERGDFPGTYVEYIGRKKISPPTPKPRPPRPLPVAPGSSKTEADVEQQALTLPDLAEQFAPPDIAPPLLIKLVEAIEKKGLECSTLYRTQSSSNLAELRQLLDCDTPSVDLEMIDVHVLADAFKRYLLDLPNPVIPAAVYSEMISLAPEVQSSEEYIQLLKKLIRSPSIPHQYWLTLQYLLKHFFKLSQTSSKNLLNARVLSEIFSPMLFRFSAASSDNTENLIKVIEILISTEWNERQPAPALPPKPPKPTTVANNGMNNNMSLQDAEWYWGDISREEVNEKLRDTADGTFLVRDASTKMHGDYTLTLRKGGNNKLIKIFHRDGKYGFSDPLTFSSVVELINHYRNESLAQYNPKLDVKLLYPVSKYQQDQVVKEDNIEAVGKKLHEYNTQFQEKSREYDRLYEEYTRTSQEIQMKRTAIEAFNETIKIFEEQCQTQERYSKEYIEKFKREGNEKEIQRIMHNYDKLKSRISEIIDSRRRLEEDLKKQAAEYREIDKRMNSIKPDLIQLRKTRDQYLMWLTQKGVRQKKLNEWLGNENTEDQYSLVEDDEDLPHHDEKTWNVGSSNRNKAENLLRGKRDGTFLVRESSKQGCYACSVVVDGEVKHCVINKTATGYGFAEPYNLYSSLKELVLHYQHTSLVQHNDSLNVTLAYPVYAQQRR
Text: (§1) A PI3-Kinase HTRF® assay kit (cat No. 33-016) purchased from Millipore Corporation was used to screen compounds provided herein. This assay used specific, high affinity binding of the GRP1 pleckstrin homology (PH) domain to PIP3, the product of a Class 1A or 1B PI3 Kinase acting on its physiological substrate PIP2. During the detection phase of the assay, a complex was generated between the GST-tagged PH domain and biotinylated short chain PIP3. The biotinylated PIP3 and the GST-tagged PH domain recruited fluorophores (Streptavidin-Allophycocyanin and Europium-labeled anti-GST respectively) to form the fluorescence resonance energy transfer (FRET) architecture, generating a stable time-resolved FRET signal. The FRET complex was disrupted in a competitive manner by non-biotinylated PIP3, a product formed in the PI3 Kinase assay.
(§2) PI3 Kinase α, β, γ and δ activity was assayed using the PI3 Kinase HTRF® assay kit (catalogue No. 33-016) purchased from Millipore Corporation. Purified recombinant PI3Kα (catalogue No. 14-602-K), PI3Kβ (catalogue No. 14-603-K), PI3Kγ (catalogue No. 14-558-K) and PI3Kδ (catalogue No. 14-604-K) were obtained from Millipore Corporation. Purified recombinant PI3K enzyme was used to catalyze the phosphorylation of phosphatidylinositol 4,5-bisphosphate (PIP2 at 10 μM) to phosphatidylinositol 3,4,5-trisphosphate (PIP3) in the presence of 10 μM ATP. The assay was carried out in 384-well format and detected using a Perkin Elmer EnVision Xcite Multilabel Reader. Emission ratios were converted into percent inhibitions and imported into GraphPad Prism software. The concentration necessary to achieve inhibition of enzyme activity by 50% (IC50) was calculated using concentrations ranging from 20 μM to 0.1 nM (12-point curve). IC50 values were determined using a nonlinear regression model available in GraphPad Prism 5.

PI3Kβ = molecular target: T2, PI3Kβ (Homo sapiens, UniProt P42338); test: PI3 Kinase HTRF assay, PI3Kβ; assay type: biochemical; settings: Between 1 μM and 10 μM; read-out: PI3K β IC50
T2 construct: purchased Millipore Corporation 14-603-K
T2 sequence (P42338 whole entry): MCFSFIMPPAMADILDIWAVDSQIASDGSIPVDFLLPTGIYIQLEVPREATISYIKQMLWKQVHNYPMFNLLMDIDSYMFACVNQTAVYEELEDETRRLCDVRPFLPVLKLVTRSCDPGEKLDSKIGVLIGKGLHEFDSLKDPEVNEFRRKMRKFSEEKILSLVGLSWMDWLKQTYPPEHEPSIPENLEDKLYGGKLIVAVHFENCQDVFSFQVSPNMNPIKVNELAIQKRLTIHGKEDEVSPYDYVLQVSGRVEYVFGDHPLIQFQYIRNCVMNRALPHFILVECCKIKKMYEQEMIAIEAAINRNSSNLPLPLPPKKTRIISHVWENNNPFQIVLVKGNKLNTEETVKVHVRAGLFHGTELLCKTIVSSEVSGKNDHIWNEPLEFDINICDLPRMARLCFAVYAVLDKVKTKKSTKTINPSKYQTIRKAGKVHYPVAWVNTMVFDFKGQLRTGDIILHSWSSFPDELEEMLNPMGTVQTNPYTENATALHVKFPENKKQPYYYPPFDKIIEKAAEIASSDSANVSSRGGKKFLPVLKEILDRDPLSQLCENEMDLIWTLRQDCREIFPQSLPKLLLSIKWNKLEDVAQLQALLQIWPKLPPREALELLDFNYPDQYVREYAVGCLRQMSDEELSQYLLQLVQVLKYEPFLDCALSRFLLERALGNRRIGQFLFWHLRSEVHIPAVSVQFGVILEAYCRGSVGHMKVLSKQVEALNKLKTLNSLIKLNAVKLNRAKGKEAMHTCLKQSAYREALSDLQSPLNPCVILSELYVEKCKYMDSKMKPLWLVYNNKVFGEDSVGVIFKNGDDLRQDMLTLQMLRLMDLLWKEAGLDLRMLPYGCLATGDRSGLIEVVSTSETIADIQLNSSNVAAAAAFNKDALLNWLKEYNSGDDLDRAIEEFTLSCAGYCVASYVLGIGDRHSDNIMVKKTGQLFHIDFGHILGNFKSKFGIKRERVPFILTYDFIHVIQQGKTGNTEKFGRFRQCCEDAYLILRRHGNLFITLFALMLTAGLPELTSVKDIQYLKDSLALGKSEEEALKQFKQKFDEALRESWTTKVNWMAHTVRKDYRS
T2 sequence (P27986 2-724 partner limits assumed): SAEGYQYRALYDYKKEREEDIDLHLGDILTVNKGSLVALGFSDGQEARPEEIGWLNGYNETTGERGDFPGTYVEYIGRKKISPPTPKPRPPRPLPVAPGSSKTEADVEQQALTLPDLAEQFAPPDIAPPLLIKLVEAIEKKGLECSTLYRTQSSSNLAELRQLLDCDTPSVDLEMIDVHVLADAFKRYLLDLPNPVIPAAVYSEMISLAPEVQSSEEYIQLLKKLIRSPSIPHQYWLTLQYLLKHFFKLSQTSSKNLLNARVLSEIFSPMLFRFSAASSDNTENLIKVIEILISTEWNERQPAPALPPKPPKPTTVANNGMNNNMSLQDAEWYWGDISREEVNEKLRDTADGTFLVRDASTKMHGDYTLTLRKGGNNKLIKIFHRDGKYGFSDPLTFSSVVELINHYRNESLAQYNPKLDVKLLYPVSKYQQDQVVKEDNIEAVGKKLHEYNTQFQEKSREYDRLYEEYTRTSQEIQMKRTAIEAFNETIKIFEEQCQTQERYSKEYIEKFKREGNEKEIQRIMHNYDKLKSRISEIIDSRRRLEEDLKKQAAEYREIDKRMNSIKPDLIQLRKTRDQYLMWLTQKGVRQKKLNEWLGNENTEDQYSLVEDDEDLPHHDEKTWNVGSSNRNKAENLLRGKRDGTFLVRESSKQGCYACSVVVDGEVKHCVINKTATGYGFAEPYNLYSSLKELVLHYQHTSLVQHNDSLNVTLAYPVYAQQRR
Text: as §1, §2

| Structure (SMILES) | IC50 (PI3Kα) [µM] | IC50 (PI3Kβ) [µM] | EC50 (Balb/c splenic B cells; Less than 100 nanoMolar) [µM] | EC50 (Balb/c splenic B cells; Between 100 nM and 1 μM) [µM] |
| --- | --- | --- | --- | --- |
| C[C@H](Nc1ncnc2scnc12)c1cc2cccc(Cl)c2c(=O)n1C [Compound 81] | 1 to 10 | – | < 0.1 | – |
| C[C@H](Nc1ncnc2scnc12)c1cc2cccc(-c3ccc(F)c(F)c3)c2c(=O)n1-c1ccccc1 [Compound 22] | 1 to 10 | – | < 0.1 | – |
| C[C@H](Nc1ncnc2scnc12)c1cc2cccc(-c3cnn(CCN4CCOCC4)c3)c2c(=O)n1-c1ccccc1 [Compound 48] | 1 to 10 | – | < 0.1 | – |
| COc1ncc(-c2cccc3cc([C@H](C)Nc4ccnc5scnc45)n(-c4ccccc4)c(=O)c23)cn1 [Compound 89] | 1 to 10 | – | < 0.1 | – |
| C[C@H](Nc1ncnc2scnc12)c1cc2cccc(-c3cccnc3)c2c(=O)n1-c1ccccc1 [Compound 28] | 1 to 10 | 1 to 10 | – | – |
| C[C@H](Nc1ncnc2scnc12)c1cc2ccccc2c(=O)n1-c1ccccc1 [Compound 71] | 1 to 10 | 1 to 10 | – | – |
| COc1ccc(-c2cccc3cc([C@H](C)Nc4ncnc5scnc45)n(-c4ccccc4)c(=O)c23)cc1 [Compound 44] | 1 to 10 | 1 to 10 | < 0.1 | – |
| COc1ncc(-c2cccc3cc([C@H](C)Nc4ncnc5scnc45)n(C4CC4)c(=O)c23)cn1 [Compound 61] | 1 to 10 | 1 to 10 | < 0.1 | – |
| COc1ncc(-c2cccc3cc([C@H](C)Nc4ncnc5scnc45)n(-c4ccccc4)c(=O)c23)cc1C(F)(F)F [Compound 58] | 1 to 10 | 1 to 10 | < 0.1 | – |
| C[C@H](Nc1ncnc2scnc12)c1cc2cccc(-c3ccc(N(C)C)nc3)c2c(=O)n1-c1ccccc1 [Compound 47] | 1 to 10 | – | < 0.1 | – |
| C[C@H](Nc1ncnc2scnc12)c1cc2cccc(C=O)c2c(=O)n1-c1ccccc1 [Compound 83] | 1 to 10 | – | < 0.1 | – |
| CCCCc1cccc2cc([C@H](C)Nc3ncnc4scnc34)n(-c3ccccc3)c(=O)c12 [Compound 96] | 1 to 10 | 1 to 10 | < 0.1 | – |
| C[C@H](Nc1ncnc2scnc12)c1cc2cccc(-c3ccnc(C(F)(F)F)c3)c2c(=O)n1-c1ccccc1 [Compound 17] | 1 to 10 | 1 to 10 | – | – |
| C[C@H](Nc1ncnc2scnc12)c1cc2cccc(/C=C/c3ccccc3)c2c(=O)n1-c1ccccc1 [Compound 49] | 1 to 10 | 1 to 10 | – | 0.1 to 1 |
| Cc1ncc(-c2cccc3cc([C@H](C)Nc4ncnc5scnc45)n(C4CC4)c(=O)c23)cn1 [Compound 62] | 1 to 10 | 1 to 10 | < 0.1 | – |
| COc1ccc(-c2cccc3cc([C@H](C)Nc4ncnc5scnc45)n(-c4ccccc4)c(=O)c23)cn1 [Compound 18] | 1 to 10 | 1 to 10 | – | – |
| COc1cnccc1-c1cccc2cc([C@H](C)Nc3ncnc4scnc34)n(-c3ccccc3)c(=O)c12 [Compound 36] | 1 to 10 | 1 to 10 | – | – |
| C[C@H](Nc1ccnc2scnc12)c1cc2cccc(Cl)c2c(=O)n1-c1cccc(F)c1 [Compound 90] | 1 to 10 | – | < 0.1 | – |
| C[C@H](Nc1ncnc2scnc12)c1cc2cccc(-c3cncnc3)c2c(=O)n1-c1ccccc1 [Compound 19] | 1 to 10 | 1 to 10 | – | – |
| COc1ccccc1-c1cccc2cc([C@H](C)Nc3ncnc4scnc34)n(-c3ccccc3)c(=O)c12 [Compound 35] | 1 to 10 | 1 to 10 | – | – |
| C[C@H](Nc1ncnc2scnc12)c1cc2cccc(-c3cnc(OCc4ccccc4)nc3)c2c(=O)n1-c1ccccc1 [Compound 53] | 1 to 10 | 1 to 10 | < 0.1 | – |

Second part, led by results:

| IC50 (PI3Kα) [µM] | IC50 (PI3Kβ) [µM] | Structure (SMILES) | EC50 (Balb/c splenic B cells; Less than 100 nanoMolar) [µM] | EC50 (Balb/c splenic B cells; Between 100 nM and 1 μM) [µM] |
| --- | --- | --- | --- | --- |
| 1 to 10 | 1 to 10 | Cc1c(-c2cccc3cc([C@H](C)Nc4ncnc5scnc45)n(-c4ccccc4)c(=O)c23)cnn1C [Compound 43] | < 0.1 | – |
| 1 to 10 | – | COc1ncc(-c2cccc3cc([C@H](C)Nc4ncnc5scnc45)n(-c4cccc(F)c4)c(=O)c23)cn1 [Compound 60] | < 0.1 | – |
| 1 to 10 | 1 to 10 | COc1ncc(-c2cccc3cc([C@H](C)Nc4ncnc5scnc45)n(-c4ccccc4)c(=O)c23)cc1C [Compound 56] | < 0.1 | – |
| 1 to 10 | 1 to 10 | C[C@H](Nc1nc(Cl)nc2scnc12)c1cc2cccc(-c3cnn(C)c3)c2c(=O)n1-c1ccccc1 [Compound 75] | – | – |
| 1 to 10 | – | C[C@H](Nc1ncnc2scnc12)c1cc2cccc(-c3ccnnc3)c2c(=O)n1-c1ccccc1 [Compound 92] | < 0.1 | – |
| 1 to 10 | 1 to 10 | Cc1ccc(-c2cccc3cc([C@H](C)Nc4ncnc5scnc45)n(-c4ccccc4)c(=O)c23)cn1 [Compound 6] | < 0.1 | – |
| 1 to 10 | – | C[C@H](Nc1ncnc2scnc12)c1cc2cccc(-c3cncc(F)c3)c2c(=O)n1-c1ccccc1 [Compound 21] | < 0.1 | – |
| 1 to 10 | 1 to 10 | C[C@H](Nc1ncnc2scnc12)c1cc2cccc(-c3cn[nH]c3)c2c(=O)n1-c1ccccc1 [Compound 26] | – | – |
| 1 to 10 | – | Cc1ncc(-c2cccc3cc([C@H](C)Nc4ncnc5scnc45)n(-c4ccccc4)c(=O)c23)cn1 [Compound 37] | – | – |
| 1 to 10 | 1 to 10 | CCCn1cc(-c2cccc3cc([C@H](C)Nc4ncnc5scnc45)n(-c4ccccc4)c(=O)c23)cn1 [Compound 29] | – | – |
| 1 to 10 | 1 to 10 | Cc1cc(-c2cccc3cc([C@H](C)Nc4ncnc5scnc45)n(-c4ccccc4)c(=O)c23)cnc1F [Compound 30] | – | – |
| 1 to 10 | 1 to 10 | C[C@H](Nc1ncnc2scnc12)c1cc2cccc(-c3cnn(C)c3)c2c(=O)n1-c1cccc(F)c1 [Compound 10] | < 0.1 | – |
| 1 to 10 | 1 to 10 | CCn1cc(-c2cccc3cc([C@H](C)Nc4ncnc5scnc45)n(-c4ccccc4)c(=O)c23)cn1 [Compound 25] | – | – |
| 1 to 10 | 1 to 10 | Cc1cc(-c2cccc3cc([C@H](C)Nc4ncnc5scnc45)n(-c4ccccc4)c(=O)c23)cnc1C [Compound 40] | – | – |
| 1 to 10 | – | Cc1cccc2cc([C@H](C)Nc3ncnc4scnc34)n(-c3cccc(F)c3)c(=O)c12 [Compound 100] | < 0.1 | – |
| 1 to 10 | – | C[C@H](Nc1ncnc2scnc12)c1cc2scc(-c3cnn(C)c3)c2c(=O)n1-c1ccccc1 [Compound 16] | – | – |
| 1 to 10 | 1 to 10 | C[C@H](Nc1ccnc2scnc12)c1cc2cccc(-c3cnn(C)c3)c2c(=O)n1-c1ccccc1 [Compound 91] | – | – |
| 1 to 10 | – | CC(C)Cn1cc(-c2cccc3cc([C@H](C)Nc4ncnc5scnc45)n(-c4ccccc4)c(=O)c23)cn1 [Compound 24] | – | – |
